Source: patent US20250176602A1, “Composition for Proliferation of Bacteroides uniformis in the Intestinal Tract” (Asahi Group Holdings, Ltd., priority 2019, published 2025)

Legend:
[1] = Exercise performance test, 10 km SPIN CYCLE travel time (Example 3); type: in vivo, human; conditions: about 200 mg/day
Experimental: (§1) As test subjects, 21 healthy males at the ages of 20 to 49 who have exercise habits of conducting exercise with an intensity of 5 METs or more for 30 minutes or more once or twice a week and who can continue the exercise habits during the test period as well were selected.
(§2) Among the 21 test subjects, 10 test subjects were selected as an α-cyclodextrin (αCD) intake group, and the remaining 11 test subjects were selected as a placebo group. The test subjects themselves were not informed who belonged to which group.
(§3) Test Supplements (tablets) having compositions described in Table 1 below were used. One tablet of the test supplements was of about 250 mg.
(§4) Each test subject of the αCD intake group and the placebo group was asked to take in 3 tablets of the above test supplements once a day at any timing. That is, each test subject of the α-cyclodextrin intake group was asked to take in about 200 mg of α-cyclodextrin per day.
The intake period for the test supplements was set to 9 weeks, and change in gut flora was evaluated, a questionnaire on fatigue feeling was conducted, and change in travel time was evaluated, before the start of the intake, after 4-week intake, and after 8-week intake. […]

[2] = Fatigue feeling mitigation test, VAS questionnaire after Aerobike exercise loading (Example 2); type: in vivo, human
Experimental: as §1, §2, §3, §4
The intake period for the test supplements was set to 9 weeks, and change in gut flora was evaluated, a questionnaire on fatigue feeling was conducted, and change in travel time was evaluated, before the start of the intake, after 4-week intake, and after 8-week intake. Note that foods and beverages that are said to support sports and training, pharmaceutical products and quasi-pharmaceutical products that have recovery, prevention or amelioration of “fatigue”, “tiredness”, “physical strength” and/or “lassitude” as the indication and effects, as well as supplements in general (also including foods with functional claims and foods for specified health use) were prohibited to take in for 1 week counted from the date when the test subjects agreed to participate in the test and during the test period.
The test subjects were subjected to exercise loading (load intensity: at an intensity of 45% of the maximum exercise loading intensity of each test subject for 50 minutes) using Aerobike (trade mark) (manufactured by KONAMI Sports & Life Col., Ltd., model number AEROBIKE-75XLIII), before intake of the test supplements, after 4-week intake, and after 8-week intake. […] Regarding fatigue, a VAS (Visual Analogue Scale) questionnaire was conducted based on the VAS testing method for fatigue feeling established by Japanese Society of Fatigue Science, immediately after loading, 30 minutes after loading, and 60 minutes after loading, to investigate change in fatigue feeling with time. The items of the questionnaire were “general fatigue feeling”, “fatigue feeling of the legs”, “tension of the legs”, “general lassitude”, and “difficulty in breathing”, and the “best state (0 mm)” and the “worst state (100 mm)” in each item were based on criteria shown in Table 2. In each intake group, the amounts of change in measured value were evaluated after 4-week intake and after 8-week intake based on the measured value before intake. […] The significant test between the placebo group and the α-cyclodextrin (αCD) intake group for the general fatigue feeling was conducted by Student's t-test, and the result of the test was summarized as a graph in FIG. 2 (*: p<0.05). In addition, the results for the items “fatigue feeling of the legs”, “tension of the legs”, “general lassitude”, and “difficulty in breathing” were summarized in Table 3. In Table 3, the significant difference was studied by paired t-test for a comparison with before intake of αCD, and the significant test between the placebo group and the α-cyclodextrin (αCD) intake group was conducted by Student's t-test.

[3] = 30 minutes after exercise, after 4-week intake, about 200 mg/day
[4] = 30 minutes after exercise, after 8-week intake, about 200 mg/day
[5] = 30 minutes after exercise, before intake
[6] = 60 minutes after exercise, after 4-week intake, about 200 mg/day
[7] = 60 minutes after exercise, after 8-week intake, about 200 mg/day
[8] = 60 minutes after exercise, before intake
[9] = immediately after exercise, after 4-week intake, about 200 mg/day
[10] = immediately after exercise, after 8-week intake, about 200 mg/day
[11] = immediately after exercise, before intake

OC[C@H]1O[C@@H]2O[C@H]3[C@H](O)[C@@H](O)[C@@H](O[C@H]4[C@H](O)[C@@H](O)[C@@H](O[C@H]5[C@H](O)[C@@H](O)[C@@H](O[C@H]6[C@H](O)[C@@H](O)[C@@H](O[C@H]7[C@H](O)[C@@H](O)[C@@H](O[C@H]1[C@H](O)[C@H]2O)O[C@@H]7CO)O[C@@H]6CO)O[C@@H]5CO)O[C@@H]4CO)O[C@@H]3CO [α-cyclodextrin]
travel time for 10 km ([1]; after 4-week intake, compared with same group before intake): significantly shortened
travel time for 10 km ([1]; after 8-week intake, compared with same group before intake and placebo group after 8-week intake): significantly shortened
VAS Difficulty in breathing [2, 3]: 17.727 ± 15.300 mm
VAS Fatigue feeling of the legs [2, 3]: 38.002 ± 21.474 mm
VAS General lassitude [2, 3]: 27.436 ± 16.724 * mm
VAS Tension of the legs [2, 3]: 38.015 ± 21.098 mm
VAS Difficulty in breathing [2, 4]: 16.498 ± 18.581 * mm
VAS Fatigue feeling of the legs [2, 4]: 28.636 ± 21.115 ** mm
VAS General lassitude [2, 4]: 24.728 ± 21.853 * mm
VAS Tension of the legs [2, 4]: 26.662 ± 21.491 ** mm
VAS Difficulty in breathing [2, 5]: 22.702 ± 23.028 mm
VAS Fatigue feeling of the legs [2, 5]: 42.045 ± 25.730 mm
VAS General lassitude [2, 5]: 39.689 ± 21.542 mm
VAS Tension of the legs [2, 5]: 41.674 ± 26.128 mm
VAS Difficulty in breathing [2, 6]: 16.907 ± 16.405 mm
VAS Fatigue feeling of the legs [2, 6]: 31.167 ± 20.034 mm
VAS General lassitude [2, 6]: 20.932 ± 16.099 mm
VAS Tension of the legs [2, 6]: 29.904 ± 19.297 mm
VAS Difficulty in breathing [2, 7]: 12.228 ± 15.335 mm
VAS Fatigue feeling of the legs [2, 7]: 22.603 ± 21.310 * mm
VAS General lassitude [2, 7]: 17.754 ± 19.279 * mm
VAS Tension of the legs [2, 7]: 22.193 ± 22.240 mm
VAS Difficulty in breathing [2, 8]: 16.882 ± 18.668 mm
VAS Fatigue feeling of the legs [2, 8]: 34.945 ± 26.504 mm
VAS General lassitude [2, 8]: 30.096 ± 20.702 mm
VAS Tension of the legs [2, 8]: 33.394 ± 26.250 mm
general fatigue feeling after the exercise (VAS), change vs before intake, compared with placebo group ([2]; about 200 mg/day, after 4-week and 8-week intake, p<0.05): significantly decreased
VAS Difficulty in breathing [2, 9]: 30.597 ± 21.390 * mm
VAS Fatigue feeling of the legs [2, 9]: 60.911 ± 21.493 mm
VAS General lassitude [2, 9]: 41.464 ± 17.587 mm
VAS Tension of the legs [2, 9]: 58.542 ± 25.137 mm
VAS Difficulty in breathing [2, 10]: 29.033 ± 20.173 ** mm
VAS Fatigue feeling of the legs [2, 10]: 54.009 ± 23.092 mm
VAS General lassitude [2, 10]: 39.053 ± 21.314 * mm
VAS Tension of the legs [2, 10]: 55.137 ± 24.253 mm
VAS Difficulty in breathing [2, 11]: 44.516 ± 19.027 mm
VAS Fatigue feeling of the legs [2, 11]: 53.304 ± 25.421 mm
VAS General lassitude [2, 11]: 51.306 ± 20.273 mm
VAS Tension of the legs [2, 11]: 59.341 ± 24.644 mm
